Results from patent US10294234B2, “HIV inhibitor compounds” (priority 2017, dated 2019).

How the values were obtained:
[1] = tested on: HIV-1 (IIIB) in MT-4 cells; assay: MT-4 HIV assay; assay type: cell-based; conditions: Human immunodeficiency virus 1, MT4, 120 h; HIV-1 (IIIB), MT-4 cells, 5 days, Cell Titer Glo; read-out: EC50
How it was run: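 Antiviral activity was read by Cell Titer Glo after a 5-day, 37 °C culture of MT-4 cells pre-infected with a 1:250 dilution of HIV-1 (IIIB). Compounds were tested as threefold dilution series in complete RPMI. Controls were no drug, mock infection and 5 uM AZT.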

in vivo = conditions: rat, in vivo; for Vd / RAT PO F: male, SD; for Vd / RAT IV CL / RAT IV T1/2: iv; for RAT PO F: 2.5 mg/kg
How it was run: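 Male SD rats (n=3/group, 0.27–0.32 kg), fasted overnight, given 0.5 or 1.0 mg/kg by 30-min IV infusion, or by oral gavage. Serial plasma samples (EDTA-K2) over 24 h measured by LC/MS/MS; non-compartmental PK analysis.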

[2] = 3H Human Predicted Clearance Assay (tritiated analogs); assay type: in vitro ADME; conditions: human, 1 uM
Method: 3H Human Predicted Clearance Assay:
For certain compounds, tritiated analogs (H^3) were prepared to further determined their human predicted clearance with increased resolution. Those studies were performed as described above using the tritiated analogs. Data from those compounds is found in Table 2 below and reported in FIG. 1 (note ATV and DRV were not tritiated).

[3] = microsomes
How it was run: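 LC/MS/MS read-out of parent compound remaining; in vitro t1/2 converted to Clint. Incubation: 1 uM compound, 0.5 mg/mL dog/rat/human liver microsomes, NADPH-regenerating system, duplicate sets, time-points 2–65 minutes.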

| SMILES | EC50 [1] | Vd (in vivo) | RAT PO F (in vivo) | RAT IV CL (in vivo) | RAT IV T1/2 (in vivo) | 3H Human Predicted Cl. [2] | Dog. Pred. Cl. [3] | Human Pred Cl. [3] | Rat. Pred. Cl. [3] |
| --- | --- | --- | --- | --- | --- | --- | --- | --- | --- |
| COC(=O)N[C@H](C(=O)N[C@@H](Cc1ccc(C#Cc2cnc(N3CC4CCC(C3)N4C3COC3)nc2)cc1)[C@@H](O)CN(Cc1c(F)cc(-c2ncccn2)cc1F)NC(=O)[C@@H](NC(=O)OC)C(C)(C)C(F)(F)F)C(C)(C)C(F)(F)F [Example 89, Methyl ((5S,8S,9S,14S)-11-(2,6-difluoro-4-(pyrimidin-2-yl)benzyl)-16,16,16-trifluoro-9-hydroxy-15,15-dimethyl-8-(4-((2-(8-(oxetan-3-yl)-3,8-diazabicyclo[3.2.1]octan-3-yl)pyrimidin-5-yl)ethynyl)benzyl)-3,6,13-trioxo-5-(1,1,1-trifluoro-2-methylpropan-2-yl)-2-oxa-4,7,11,12-tetraazahexadecan-14-yl)carbamate] | 3.32 nM | 3.53 L/kg | 44.2% | 0.3 L/h/kg | 10.2 h | 0.08 | 1.67 L/H/kg | <0.11 L/H/kg | <0.18 L/H/kg |
| COC(=O)N[C@H](C(=O)N[C@@H](Cc1ccc(C#Cc2cnc(N3CC4CCC(C3)N4C3COC3)nc2)cc1)[C@@H](O)CN(Cc1c(F)cc(-c2ccn(CC(F)F)n2)cc1F)NC(=O)[C@@H](NC(=O)OC)C(C)(C)C(F)(F)F)C(C)(C)C(F)(F)F [Example 36, Methyl ((5S,8S,9S,14S)-11-(4-(1-(2,2-difluoroethyl)-1H-pyrazol-3-yl)-2,6-difluorobenzyl)-16,16,16-trifluoro-9-hydroxy-15,15-dimethyl-8-(4-((2-(8-(oxetan-3-yl)-3,8-diazabicyclo[3.2.1]octan-3-yl)pyrimidin-5-yl)ethynyl)benzyl)-3,6,13-trioxo-5-(1,1,1-trifluoro-2-methylpropan-2-yl)-2-oxa-4,7,11,12-tetraazahexadecan-14-yl)carbamate] | 3.68 nM | 5.99 L/kg | 16.4% | 0.32 L/h/kg | 15.7 h | 0.1 | – | <0.11 L/H/kg | 0.27 L/H/kg |
| COC(=O)N[C@H](C(=O)N[C@@H](Cc1ccc(-c2cnc(N3CC4CCC(C3)N4C3COC3)nc2)cc1)[C@@H](O)CN(Cc1c(F)cc(-c2ccn(C(F)F)n2)cc1F)NC(=O)[C@@H](NC(=O)OC)C(C)(C)C(F)(F)F)C(C)(C)C(F)(F)F [Example 199, Methyl ((5S,8S,9S,14S)-11-(4-(1-(difluoromethyl)-1H-pyrazol-3-yl)-2,6-difluorobenzyl)-16,16,16-trifluoro-9-hydroxy-15,15-dimethyl-8-(4-(2-(8-(oxetan-3-yl)-3,8-diazabicyclo[3.2.1]octan-3-yl)pyrimidin-5-yl)benzyl)-3,6,13-trioxo-5-(1,1,1-trifluoro-2-methylpropan-2-yl)-2-oxa-4,7,11,12-tetraazahexadecan-14-yl)carbamate] | 2.72 nM | 1.07 L/kg | 14.7% | 0.46 L/h/kg | 2.09 h | 0.15 | 0.91 L/H/kg | <0.11 L/H/kg | 0.48 L/H/kg |
| COC(=O)N[C@H](C(=O)N[C@@H](Cc1ccc(C#Cc2ccc(N3CC4CCC(C3)N4C3COC3)nc2)cc1)[C@@H](O)CN(Cc1c(F)cc(-c2ccn(CC(F)F)n2)cc1F)NC(=O)[C@@H](NC(=O)OC)C(C)(C)C(F)(F)F)C(C)(C)C(F)(F)F [Example 46, Methyl ((5S,10S,11S,14S)-8-(4-(1-(2,2-difluoroethyl)-1H-pyrazol-3-yl)-2,6-difluorobenzyl)-16,16,16-trifluoro-10-hydroxy-15,15-dimethyl-11-(4-((6-(8-(oxetan-3-yl)-3,8-diazabicyclo[3.2.1]octan-3-yl)pyridin-3-yl)ethynyl)benzyl)-3,6,13-trioxo-5-(1,1,1-trifluoro-2-methylpropan-2-yl)-2-oxa-4,7,8,12-tetraazahexadecan-14-yl)carbamate] | 4.34 nM | 4.22 L/kg | 13% | 0.45 L/h/kg | 9.22 h | 0.04 | 1.64 L/H/kg | <0.11 L/H/kg | 0.19 L/H/kg |
| COC(=O)N[C@H](C(=O)N[C@@H](Cc1ccc(C#Cc2ccc(N3CC4CCC(C3)N4C3COC3)nc2)cc1)[C@@H](O)CN(Cc1c(F)cc(-c2cc(F)ccn2)cc1F)NC(=O)[C@@H](NC(=O)OC)C(C)(C)C(F)(F)F)C(C)(C)C(F)(F)F [Example 239, methyl ((5S,8S,9S,14S)-11-(2,6-difluoro-4-(4-fluoropyridin-2-yl)benzyl)-16,16,16-trifluoro-9-hydroxy-15,15-dimethyl-8-(4-((6-(8-(oxetan-3-yl)-3,8-diazabicyclo[3.2.1]octan-3-yl)pyridin-3-yl)ethynyl)benzyl)-3,6,13-trioxo-5-(1,1,1-trifluoro-2-methylpropan-2-yl)-2-oxa-4,7,11,12-tetraazahexadecan-14-yl)carbamate] | 4.45 nM | 5.49 L/kg | 26.3% | 0.4 L/h/kg | 12.9 h | 0.13 | – | <0.11 L/H/kg | <0.18 L/H/kg |
| COC(=O)N[C@H](C(=O)N[C@@H](Cc1ccc(C#Cc2ccc(N3CC4CCC(C3)N4C3COC3)nc2)cc1)[C@@H](O)CN(Cc1c(F)cc(-c2ncccn2)cc1F)NC(=O)[C@@H](NC(=O)OC)C(C)(C)C(F)(F)F)C(C)(C)C(F)(F)F [Example 101, Methyl ((5S,8S,9S,14S)-11-(2,6-difluoro-4-(pyrimidin-2-yl)benzyl)-16,16,16-trifluoro-9-hydroxy-15,15-dimethyl-8-(4-((6-(8-(oxetan-3-yl)-3,8-diazabicyclo [3.2.1]octan-3-yl)pyridin-3-yl)ethynyl)benzyl)-3,6,13-trioxo-5-(1,1,1-trifluoro-2-methylpropan-2-yl)-2-oxa-4,7,11,12-tetraazahexadecan-14-yl)carbamate] | 4.22 nM | 6.07 L/kg | 38.4% | 0.48 L/h/kg | 10 h | 0.08 | – | <0.11 L/H/kg | <0.18 L/H/kg |
| COC(=O)N[C@H](C(=O)NN(Cc1c(F)cc(-c2ccn(C(F)F)n2)cc1F)C[C@H](O)[C@H](Cc1ccc(C#Cc2cnc(N3CC4CCC(C3)N4C3COC3)nc2)cc1)NC(=O)[C@@H](NC(=O)OC)C(C)(C)C(F)(F)F)C(C)(C)C [Example 23, Methyl ((5S,8S,9S,14S)-11-(4-(1-(difluoromethyl)-1H-pyrazol-3-yl)-2,6-difluorobenzyl)-9-hydroxy-15,15-dimethyl-8-(4-((2-(8-(oxetan-3-yl)-3,8-diazabicyclo[3.2.1]octan-3-yl)pyrimidin-5-yl)ethynyl)benzyl)-3,6,13-trioxo-5-(1,1,1-trifluoro-2-methylpropan-2-yl)-2-oxa-4,7,11,12-tetraazahexadecan-14-yl)carbamate] | 4.82 nM | – | – | – | – | 0.07 | 0.21 L/H/kg | <0.11 L/H/kg | 0.22 L/H/kg |
| COC(=O)N[C@H](C(=O)N[C@@H](Cc1ccc(-c2ccc(N3CC4CCC(C3)N4C3COC3)nc2)cc1)[C@@H](O)CN(Cc1c(F)cc(-c2ccn(C(F)F)n2)cc1F)NC(=O)[C@@H](NC(=O)OC)C(C)(C)C(F)(F)F)C(C)(C)C(F)(F)F [Example 208, Methyl ((5S,8S,9S,14S)-11-(4-(1-(difluoromethyl)-1H-pyrazol-3-yl)-2,6-difluorobenzyl)-16,16,16-trifluoro-9-hydroxy-15,15-dimethyl-8-(4-(6-(8-(oxetan-3-yl)-3,8-diazabicyclo[3.2.1]octan-3-yl)pyridin-3-yl)benzyl)-3,6,13-trioxo-5-(1,1,1-trifluoro-2-methylpropan-2-yl)-2-oxa-4,7,11,12-tetraazahexadecan-14-yl)carbamate] | 2.51 nM | – | – | – | – | 0.11 | – | 0.16 L/H/kg | 0.74 L/H/kg |
